Reference: patent US20210137886A1, “INHIBITORS OF METALLO-BETA-LACTAMASES” (Oxford University Innovation Limited, priority 2017, published 2021)

Tests used:
[1] = system: Klebsiella pneumoniae IMP-4; assay: Meropenem MIC, CLSI broth or agar microdilution, strain entry 1; assay type: cell-based
E. coli VIM-1 = assay: Meropenem MIC, CLSI broth or agar microdilution, strain entry 3; assay type: cell-based; details: strain entry 3, E. coli VIM-1
Description: (§1) In each case DMSO was used to dissolve inhibitors.

[2] = system: Klebsiella pneumoniae NDM-1; assay: Meropenem MIC, CLSI broth or agar microdilution, strain entry 6; assay type: cell-based; details: strain entry 6, Klebsiella pneumoniae NDM-1
Description: as §1

[3] = target: VIM-2 (Veronese metallo-β-lactamase-2) (Escherichia coli, UniProt Q5U7L7); assay: Metallo-β-lactamase enzyme inhibition, standard assay protocol
IMP-1 (Imipenemase-1) = IMP-1 (Imipenemase-1) (Serratia marcescens, UniProt P52699); assay: as above
Sequence of IMP-1 (Imipenemase-1) (P52699 19-246, looked up, species assumed): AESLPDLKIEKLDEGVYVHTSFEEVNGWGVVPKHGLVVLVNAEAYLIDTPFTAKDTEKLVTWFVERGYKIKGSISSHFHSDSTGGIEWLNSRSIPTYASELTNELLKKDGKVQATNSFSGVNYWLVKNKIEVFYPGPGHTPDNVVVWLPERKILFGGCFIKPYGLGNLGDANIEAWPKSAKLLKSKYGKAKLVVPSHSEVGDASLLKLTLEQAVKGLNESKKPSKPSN

[4] = system: Klebsiella pneumoniae NDM-1 + DHA + CTX − M-15; assay: Meropenem MIC, CLSI broth or agar microdilution, strain entry 7; assay type: cell-based
[5] = system: Pseudomonas aeruginosa VIM-2; assay: Meropenem MIC, CLSI broth or agar microdilution, strain entry 5; assay type: cell-based; details: strain entry 5, Pseudomonas aeruginosa VIM-2
Description: as §1

[6] = target: VIM-1 (Veronese metallo-β-lactamase-1) (Pseudomonas aeruginosa, UniProt A0A0F7KYQ8); assay: Metallo-β-lactamase enzyme inhibition, standard assay protocol
[7] = system: Klebsiella pneumoniae VIM-1; assay: Meropenem MIC, CLSI broth or agar microdilution, strain entry 4; assay type: cell-based
E. coli IMP-4 = assay: Meropenem MIC, CLSI broth or agar microdilution, strain entry 2; assay type: cell-based
[8] = target: NDM-1 (New Delhi metallo-β-lactamase-1) (Klebsiella pneumoniae, UniProt C7C422); assay: Metallo-β-lactamase enzyme inhibition, standard assay protocol
Sequence of NDM-1 (New Delhi metallo-β-lactamase-1) (C7C422 29-270, looked up, species assumed): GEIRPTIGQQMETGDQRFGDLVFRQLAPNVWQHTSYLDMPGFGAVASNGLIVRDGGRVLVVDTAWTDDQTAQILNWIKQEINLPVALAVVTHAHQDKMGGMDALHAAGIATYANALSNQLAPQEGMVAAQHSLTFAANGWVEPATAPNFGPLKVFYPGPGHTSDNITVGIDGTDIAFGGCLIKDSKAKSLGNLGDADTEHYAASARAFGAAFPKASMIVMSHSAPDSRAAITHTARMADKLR

Structure (SMILES) | Change in MIC value of meropenem ([1]; 2 mg/L inhibitor) [log2 difference] | Change in MIC value of meropenem ([1]; 4 mg/L inhibitor) [log2 difference] | Change in MIC value of meropenem ([1]; 8 mg/L inhibitor) [log2 difference] | Change in MIC value of meropenem (E. coli VIM-1; 2 mg/L inhibitor) [log2 difference] | Change in MIC value of meropenem (E. coli VIM-1; 4 mg/L inhibitor) [log2 difference] | Change in MIC value of meropenem (E. coli VIM-1; 8 mg/L inhibitor) [log2 difference] | Change in MIC value of meropenem ([2]; 2 mg/L inhibitor) [log2 difference] | Change in MIC value of meropenem ([2]; 4 mg/L inhibitor) [log2 difference] | Change in MIC value of meropenem ([2]; 8 mg/L inhibitor) [log2 difference] | IC50 [3] [nM] | IC50 (IMP-1 (Imipenemase-1)) [nM] | Change in MIC value of meropenem ([4]; 2 mg/L inhibitor) [log2 difference] | Change in MIC value of meropenem ([4]; 4 mg/L inhibitor) [log2 difference] | Change in MIC value of meropenem ([4]; 8 mg/L inhibitor) [log2 difference] | Change in MIC value of meropenem ([5]; 2 mg/L inhibitor) [log2 difference] | Change in MIC value of meropenem ([5]; 4 mg/L inhibitor) [log2 difference] | Change in MIC value of meropenem ([5]; 8 mg/L inhibitor) [log2 difference] | IC50 [6] [nM] | Change in MIC value of meropenem ([7]; 2 mg/L inhibitor) [log2 difference] | Change in MIC value of meropenem ([7]; 4 mg/L inhibitor) [log2 difference] | other results
O=C(O)c1[nH]c2c(C3CC3)csc2c1-c1ccc(F)cc1 [Example 13, 3-cyclopropyl-6-(4-fluorophenyl)-4H-thieno-[3,2-b]pyrrole-5-carboxylic acid] | −2 | −2 | −2 | −1 | −1 | −1 | −1 | −1 | −2 | 79.4 | 398 | −2 | −2 | −2 | 0 | 0 | 0 | 1580 | −2 | −2 | Change in MIC value of meropenem ([7]; 8 mg/L inhibitor): −2 log2 difference; Change in MIC value of meropenem (E. coli IMP-4; 2 mg/L inhibitor): −2 log2 difference; Change in MIC value of meropenem (E. coli IMP-4; 4 mg/L inhibitor): −2 log2 difference; Change in MIC value of meropenem (E. coli IMP-4; 8 mg/L inhibitor): −2 log2 difference; IC50 [8]: 50.1 nM
NS(=O)(=O)c1ccc(-c2c(C(=O)O)[nH]c3c(Br)csc23)cc1 [Example 14, 3-bromo-6-(4-sulfamoylphenyl)-4H-thieno-[3,2-b]pyrrole-5-carboxylic acid] | −1 | −1 | −1 | −1 | −1 | −1 | −1 | −1 | −2 | 158 | 1260 | −2 | −2 | −3 | 0 | 0 | 0 | 3160 | −1 | −1 | Change in MIC value of meropenem ([7]; 8 mg/L inhibitor): −1 log2 difference; Change in MIC value of meropenem (E. coli IMP-4; 2 mg/L inhibitor): −1 log2 difference; Change in MIC value of meropenem (E. coli IMP-4; 4 mg/L inhibitor): −1 log2 difference; Change in MIC value of meropenem (E. coli IMP-4; 8 mg/L inhibitor): −1 log2 difference; IC50 [8]: 63.1 nM
